The record followed here is ChEMBL document CHEMBL4765292, “Flexible diaminodihydrotriazine inhibitors of Plasmodium falciparum dihydrofolate reductase: Binding strengths, modes of binding and their antimalarial activities” (Eur J Med Chem, 2020).

pIC50, pKi: −log10 of the molar value. Where only a bound is given, the exact number is not on record here.

Data set [1] in a line: Inhibition of Plasmodium falciparum DHFR C59R/S108N/I164L mutant expressed in Escherichia coli BL21 using DHF as substrate by spectrophotometric analysis.
For another data set, the system named is Vero. Put plainly: Cytotoxicity against African green monkey Vero cells assessed as reduction in cell viability incubated for 72 hrs by SRB assay. The format is cell-based. To be noted: Chlorocebus sabaeus.
The test system of data set [2] is Plasmodium falciparum. Put plainly: Antimalarial activity against Plasmodium falciparum K1CB1 harboring DHFR […] mutant infected in human erythrocytes assessed as reduction in [3H]-hypoxanthine incorporation pretreated for 20 hrs followed by [3H]-hypoxanthine addition measured after 20 hrs by radioactivity method. The format is functional, organism-based. As to conditions: K1CB1, Erythrocyte.

Data set [3] deals with Plasmodium falciparum. Put plainly: Antimalarial activity against Plasmodium falciparum T9/94 RC17 harboring DHFR A16V/S108T mutant infected in human erythrocytes assessed as reduction in [3H]-hypoxanthine incorporation pretreated for 20 hrs followed by [3H]-hypoxanthine addition measured after 20 hrs by radioactivity method. The format is functional, organism-based. To be noted: T9/94 RC17, Erythrocyte.

A short description of data set [4]: Inhibition of Plasmodium falciparum DHFR N51I/C59R/S108N mutant expressed in Escherichia coli BL21 using DHF as substrate by spectrophotometric analysis.
The nature of data set [5]: Inhibition of Plasmodium falciparum DHFR N51I/C59R/S108N/I164L mutant expressed in Escherichia coli BL21 using DHF as substrate by spectrophotometric analysis.
For data set [6], the system named is Plasmodium falciparum. Put plainly: Antimalarial activity against Plasmodium falciparum TM4/8.2 infected in human erythrocytes assessed as reduction in [3H]-hypoxanthine incorporation pretreated for 20 hrs followed by [3H]-hypoxanthine addition measured after 20 hrs by radioactivity method. The format is functional, organism-based.
The subject of data set [7] is Plasmodium falciparum. Put plainly: Antimalarial activity against Plasmodium falciparum V1/S harboring DHFR N51I/C59R/S108N/I164L mutant infected in human erythrocytes assessed as reduction in [3H]-hypoxanthine incorporation pretreated for 20 hrs followed by [3H]-hypoxanthine addition measured after 20 hrs by radioactivity method. As to conditions: Erythrocyte. In kind it is functional, organism-based.

The subject of data set [8] is DHFR (human against Plasmodium falciparum DHFR N51I/C59R/S108N/I164L mutant). Nature of the data set: Selectivity index, ratio of Ki for human DHFR expressed in Escherichia coli BL21 to Ki for Plasmodium falciparum DHFR N51I/C59R/S108N/I164L mutant expressed in Escherichia coli BL21. To be noted: read-out: Ratio Ki. In kind it is toxicity.
Data set [9] is described as follows: Inhibition of Plasmodium falciparum DHFR A16V/S108T mutant expressed in Escherichia coli BL21 using DHF as substrate by spectrophotometric analysis.
The test system of data set [10] is DHFR (human against Plasmodium falciparum DHFR double mutant). Put plainly: Selectivity index, ratio of Ki for human DHFR expressed in Escherichia coli BL21 to Ki for Plasmodium falciparum DHFR double mutant expressed in Escherichia coli BL21. The format is toxicity. As to conditions: read-out: Ratio Ki.
Data set [11] in a line: Therapeutic index, ratio of IC50 for African green monkey Vero cells to IC50 for Plasmodium falciparum K1CB1 harboring DHFR […] mutant. In kind it is toxicity. As to conditions: read-out: Ratio IC50.
The nature of data set [12]: Inhibition of Plasmodium falciparum DHFR expressed in Escherichia coli BL21 using DHF as substrate by spectrophotometric analysis.
Data set [13] in a line: Inhibition of Plasmodium falciparum DHFR […] mutant expressed in Escherichia coli BL21 using DHF as substrate by spectrophotometric analysis.
Data set [14] in a line: Therapeutic index, ratio of IC50 for African green monkey Vero cells to IC50 for Plasmodium falciparum TM4/8.2. The format is toxicity. To be noted: against Plasmodium falciparum TM4/8.2, read-out: Ratio IC50.
In data set [15] the test system is DHFR (human against Plasmodium falciparum DHFR). Nature of the data set: Selectivity index, ratio of Ki for human DHFR expressed in Escherichia coli BL21 to Ki for Plasmodium falciparum DHFR expressed in Escherichia coli BL21. The format is toxicity. As to conditions: read-out: Ratio Ki.
Data set [16] deals with Plasmodium falciparum. Put plainly: Antimalarial activity against Plasmodium falciparum W2 harboring DHFR N51I/C59R/S108N mutant infected in human erythrocytes assessed as reduction in [3H]-hypoxanthine incorporation pretreated for 20 hrs followed by [3H]-hypoxanthine addition measured after 20 hrs by radioactivity method. The format is functional, organism-based. To be noted: W2, Erythrocyte.

Data set [17] has as its system Plasmodium falciparum. Nature of the data set: Antimalarial activity against Plasmodium falciparum CsI-2 harboring DHFR C59R/S108N/I164L mutant infected in human erythrocytes assessed as reduction in [3H]-hypoxanthine incorporation pretreated for 20 hrs followed by [3H]-hypoxanthine addition measured after 20 hrs by radioactivity method. As to conditions: CsI-2, Erythrocyte. In kind it is functional, organism-based.

Data set [18] can be described thus: Therapeutic index, ratio of IC50 for African green monkey Vero cells to IC50 for Plasmodium falciparum V1/S harboring DHFR N51I/C59R/S108N/I164L mutant. To be noted: read-out: Ratio IC50. The format is toxicity.
Data set [19] in a line: Inhibition of Plasmodium falciparum DHFR using DHF as substrate by spectrophotometric analysis.

For `CC1(C)N=C(N)N=C(N)N1OCCCOc1cccc(Cl)c1Cl`, the negative logarithm of the Ki (pKi) is 8.85 in data set [1]; 9.15 in [4]; 8.96 in [5]; 8.89 in data set [9]; 9.22 in [12]; 9.00 in [13]. Moreover, the pIC50 is 5.01 in the data set with Vero; 8.72 in the data set on Plasmodium falciparum [2]; 9.68 in the data set on Plasmodium falciparum [3]; 9.46 in the data set with Plasmodium falciparum [6]; 8.28 in the data set on Plasmodium falciparum [7]; 9.09 with Plasmodium falciparum [16]. The negative-log IC50 (pIC50) in the data set on Plasmodium falciparum [17] is 8.41. In addition, the selectivity ratio in data set [8] turned out to be 21; in [10], 24; in [11], 5110; in data set [14], 27700; in data set [15], 39; in data set [18], 1870.

In the case of `CC1N=C(N)N=C(N)N1OCCCOc1cc(Cl)c(Cl)cc1Cl` (stereo not drawn), the pKi in data set [1] was 9.30; in data set [4] it was 9.40; in [5], 9.22; in data set [19], 9.52; in [13], 9.30. For the same compound, the pIC50 with Vero was 4.34; in the data set on Plasmodium falciparum [2] it was 7.72; in the data set with Plasmodium falciparum [3] it was 9.49; in the data set with Plasmodium falciparum [6], 8.64; with Plasmodium falciparum [7] it was 6.52; in the data set with Plasmodium falciparum [16], 7.46. For the same compound, the pIC50 in the data set on Plasmodium falciparum [17] is 7.32. The selectivity ratio amounted to 40 in data set [8]; 47 in data set [10]; 2420 in data set [11]; 20000 in data set [14]; 79 in data set [15]; 153 in data set [18].

Take `CC1(C)N=C(N)N=C(N)N1OCCCCc1ccccc1`: the negative-log Ki (pKi) was 8.66 in data set [1]; 9.15 in data set [4]; 8.43 in data set [5]; 8.70 in data set [9]; 9.52 in data set [12]; 9.15 in data set [13]. Also, the negative-log IC50 (pIC50) in the data set on Vero was 4.57; in the data set with Plasmodium falciparum [2], 7.51; in the data set on Plasmodium falciparum [3], 8.43; with Plasmodium falciparum [6], 7.48; in the data set on Plasmodium falciparum [7] it was 6.23; with Plasmodium falciparum [16], 7.36. Further, the negative logarithm of the IC50 (pIC50) in the data set with Plasmodium falciparum [17] is 7.34. Also, the selectivity ratio in [8] is 11; in [10], 60; in [11] it was 874; in data set [14], 821; in data set [15], 139; in [18] it was 46.

Regarding `CC1(C)N=C(N)N=C(N)N1OCCCOc1ccccc1`, the pKi was 8.85 in data set [1]; 9.10 in data set [4]; 8.72 in data set [5]; 8.82 in data set [9]; 9.15 in data set [12]; 9.00 in data set [13]. Moreover, the pIC50 is 4.48 in the data set on Vero; 8.27 in the data set with Plasmodium falciparum [2]; 9.23 in the data set on Plasmodium falciparum [3]; 9.43 in the data set on Plasmodium falciparum [6]; 7.28 in the data set with Plasmodium falciparum [7]; 8.23 in the data set with Plasmodium falciparum [16]. The pIC50 with Plasmodium falciparum [17] is 7.49. For the same compound, the selectivity ratio is 19 in [8]; 36 in [10]; 6170 in [11]; 90000 in data set [14]; 52 in data set [15]; 628 in [18].

Take `CC1(C)N=C(N)N=C(N)N1OCCCOc1cc(Cl)c(Cl)cc1Cl`: the pKi in [1] was 9.40; in data set [4], 8.96; in data set [5] it was 8.72; in data set [19], 9.30; in [13], 9.22. The pIC50 in the data set with Vero is < 6.00; with Plasmodium falciparum [2], 8.64; in the data set on Plasmodium falciparum [3], 9.47; in the data set on Plasmodium falciparum [6], 9.24; with Plasmodium falciparum [7] it was 7.74; with Plasmodium falciparum [16], 8.38. In the data set with Plasmodium falciparum [17], the pIC50 is 8.42. The selectivity ratio is 8 in data set [8]; 24 in data set [10]; > 435 in data set [11]; > 1750 in [14]; 29 in data set [15]; > 56 in [18].

For the compound `CC1(C)N=C(N)N=C(N)N1OCCCSc1ccccc1Cl`, the negative logarithm of the Ki (pKi) in data set [1] is 9.05; in [4], 9.15; in data set [5] it was 9.00; in [9] it was 8.72; in [12] it was 9.22; in data set [13] it was 8.96. Besides, the negative-log IC50 (pIC50) was 4.84 with Vero; 8.44 in the data set with Plasmodium falciparum [2]; 9.14 in the data set with Plasmodium falciparum [3]; 9.32 in the data set with Plasmodium falciparum [6]; 7.36 with Plasmodium falciparum [7]; 8.48 with Plasmodium falciparum [16]. Also, the negative-log IC50 (pIC50) with Plasmodium falciparum [17] is 8.36. In addition, the selectivity ratio in data set [8] worked out at 21; in data set [10], 19; in data set [11], 4060; in data set [14], 30400; in [15] it was 35; in [18], 332.

For `CC1(C)N=C(N)N=C(N)N1OCCCSc1ccc(Cl)cc1`, the negative-log Ki (pKi) in data set [1] was 9.05; in data set [4], 9.15; in data set [5], 9.10; in [9] it was 8.51; in data set [12], 9.22; in data set [13] it was 9.05. Moreover, the pIC50 with Vero is 4.74; in the data set on Plasmodium falciparum [2] it was 8.21; in the data set on Plasmodium falciparum [3], 8.74; with Plasmodium falciparum [6] it was 9.22; in the data set with Plasmodium falciparum [7], 6.59; in the data set on Plasmodium falciparum [16] it was 8.27. Moreover, the pIC50 in the data set on Plasmodium falciparum [17] is 7.43. Moreover, the selectivity ratio in data set [8] came to 30; in data set [10], 26; in data set [11] it was 2970; in data set [14] it was 30200; in data set [15], 40; in data set [18], 70.

As to `CC1(C)NC(N)=NC(=N)N1OCCCSc1ccccc1`, the pKi is 9.40 in [1]; 9.52 in data set [4]; 9.00 in [9]; 9.30 in data set [12]; 9.10 in [13]. In addition, the pIC50 in the data set on Vero is 4.20; with Plasmodium falciparum [2], 8.32; in the data set on Plasmodium falciparum [3], 9.24; with Plasmodium falciparum [6] it was 9.28; in the data set on Plasmodium falciparum [7], 7.19; in the data set on Plasmodium falciparum [16] it was 8.00. In addition, in the data set with Plasmodium falciparum [17], the pIC50 was 7.41. The selectivity ratio amounted to 58 in [8]; 36 in data set [10]; 13300 in [11]; 123000 in data set [14]; 58 in data set [15]; 997 in [18].

Consider `CC1(C)N=C(N)N=C(N)N1OCCCNc1ccc(Cl)c(Cl)c1`, for which the negative logarithm of the Ki (pKi) is 8.85 in [1]; 9.05 in data set [4]; 8.29 in data set [5]; 8.43 in data set [9]; 8.92 in [12]; 9.10 in data set [13]. The pIC50 is < 4.30 in the data set with Vero; 7.35 in the data set with Plasmodium falciparum [2]; 7.77 in the data set on Plasmodium falciparum [3]; 8.35 in the data set with Plasmodium falciparum [6]; 6.13 in the data set with Plasmodium falciparum [7]; 7.24 in the data set on Plasmodium falciparum [16]. In addition, the pIC50 with Plasmodium falciparum [17] was 6.41. In addition, the selectivity ratio in data set [8] is 9; in data set [10], 61; in data set [11], > 11100; in [14], > 11100; in data set [15], 40; in data set [18], > 68.
